Patent US20200113920A1, “COMPOSITIONS AND METHODS FOR TREATMENT OF MICROSPORIDIA INFECTION USING PROTEASOME INHIBITORS INCLUDING IXAZOMIB” (BARNARD COLLEGE, priority 2018, published 2020)
Where a name gives a salt, the structure may show the parent alone. Non-standard residues stand in square brackets, D forms with d. Residues, ends and D or L forms follow the SMILES beside them. ξ: configuration not given here. *: point of attachment. Cbz = O=C(OCc1ccccc1)*; ξL = CC(C)CC(N)C(=O)O

Assays:
[1] = test system: N. ceranae; assay: N. ceranae infection in newly eclosed, experimentally infected honey bees fed proteasome inhibitors (spore counting and quantitative PCR); assay type: in vivo, Nosema ceranae; conditions: for infection intensity after cessation of treatment (rebound): four days treatment, then sucrose solution alone for 4 days, spore counting and DNA; for efficacy against N. ceranae infection relative to Fumagillin: feeding bees during N. ceranae infection
Excerpt: To standardize experiments by using age-matched bees and to allow for longer treatment periods, we used newly enclosed bees and tested the effects of a number of commercially available proteasome inhibitors, including Ixazomib (MLN2238) (purchased from Selleck Chemicals), Ixazomib citrate (MLN9708) (purchased from Selleck Chemicals), Oprozomib (ONX 0912) (purchased from Selleck Chemicals), Dexazomib (purchased from Selleck Chemicals), Carfilzomib (purchased from Selleck Chemicals), Bortezomib (purchased from Selleck Chemicals), Epoxomicin (purchased from Selleck Chemicals), HMB-Val-Ser-Leu-VE (purchased from Cayman Chemical), MG-262 (purchased from APExBIO), and the two stereoisomers of MG132 (S and R) (purchased from Cayman Chemical) as well as Fumagillin (purchased from Selleck Chemicals). On day two post-eclosion, N. ceranae spores (5×10^6 ml) were fed to bees in sucrose solution ad libitum (Fries et al. 2013) for 48 hours. At 3 days post infection, honey bees in individual cages were fed sucrose solution containing one of the pharmacologic agents at 40 μM or vehicle control alone. For each trial, we tested pairs of novel compounds simultaneously with an untreated group, a Fumagillin treated group, and an Ixazomib-treated group. After 4 days of drug feeding, honey bee midguts were dissected, and infection levels were assessed by spore counting and quantitative PCR.
We focused on ixazomib and ixazomib citrate for further experiments. Again using newly eclosed bees, we treated infected bees for up to eight days with ixazomib, Fumagillin, or sucrose solution alone, and measured infection level by spore counting and DNA on days 4 and 8 post initiation of treatment (FIGS. 4A and 4B). […] Finally, the goal was to determine whether any rebound of N. ceranae infection was observed after cessation of treatment by ixazomib and ixazomib citrate as has been reported for Fumagillin (Huang et al. 2013). Infected newly eclosed bees were treated with sucrose solution containing ixazomib, ixazomib citrate, Fumagillin, or vehicle alone for four days. We then switched all cages to sucrose solution alone for 4 days and then measured infection level by spore counting and DNA. We observed that infection intensity stayed the same for bees receiving sucrose solution for the whole experiment, increased for those bees treated with Fumagillin first, and decreased for those bees fed either ixazomib or ixazomib citrate first (FIGS. 4E and 4F).

[2] = test system: honey bees; assay: Honey bee survival during drug feeding; assay type: in vivo, Apis mellifera; conditions: 40 μM in sucrose solution for 10 days starting day 3 post-eclosion, newly emerged bees
Experimental: To assess the impact of ixazomib treatment on age-matched honey bees, newly emerged bees were fed sucrose solution containing ixazomib, ixazomib citrate, Fumagillin (all at 40 μM), or vehicle alone for 10 days starting on day 3 post-eclosion.

[3] = test system: Encephalitozoon hellem; assay: E. hellem infection of RK-13 cells, qPCR-based assay of pathogen and host cell genome equivalents; conditions: four-day infection of RK-13 cells
Excerpt: (§1) Thus, it was hypothesized that pharmacological inhibition of the UPS will reduce infection intensity of diverse microsporidia in their respective host species. To test this hypothesis, we chose to focus on Encephalitozoon hellem, a microsporidia species first described as the cause of keratoconjunctivitis in 3 AIDS patients in 1991 (Didier et al. 1991) and subsequently observed in numerous immunocompromised patients (Weiss and Becnel, 2014). The genome of E. hellem has been sequenced (Pombert et al. 2012) and it is easily culturable (Molestina et al. 2014), making it ideal for such studies.

[4] = test system: N. ceranae; assay: N. ceranae infection intensity in experimentally infected honey bees fed drug in sucrose syrup; assay type: in vivo, Nosema ceranae
Experimental: that works by reacting with the β5 subunit responsible for chymotrypsin-like activity (Goldberg, 2012). After experimentally infecting bees, infected bees were fed sucrose syrup or sucrose syrup containing 500 μM MG132 for 2 days starting on day 6 post infection. On day 8 post infection, spore levels were then measured using light microscopy to determine the effects of proteasome inhibition on N. ceranae infection intensity. […] MG132 is a poorly bioavailable proteasome inhibitor with known toxicity in multicellular eukaryotes. […] Significant effort has been directed towards finding novel strategies for targeting the proteasome (Goldberg, 2012; Śledź and Baumeister, 2016; Cromm and Crews, 2017), providing a number of pharmacologic agents with better efficacy, improved bioavailability, and increased selectivity. We first tested the ability of ixazomib, a modified peptide boronic acid that binds the β5 site of the 20 S proteasome and inhibits proteasome activity (Kupperman et al. 2010), to reduce N. ceranae infection in honey bees. Ixazomib is commercially available (e.g., from Selleck Chemincals) and has the structure of […]

[5] = test system: N. ceranae; assay: N. ceranae infection in naturally infected bees from a highly infected colony; assay type: in vivo, Nosema ceranae; conditions: bees from a highly infected colony (prevalence>90% infected); fed 2 days vs DMSO vehicle control
[6] = test system: rabbit kidney cell line (RK-13) cells; assay: Rabbit cell numbers in E. hellem-infected RK-13 culture; assay type: cell-based; conditions: 10-100 nM ixazomib; four-day infection of RK-13 cells
Excerpt: as §1

SMILES: CCOC(=O)/C=C/[C@H](CC(C)C)NC(=O)[C@H](CO)NC(=O)[C@@H](NC(=O)c1cccc(O)c1C)C(C)C [HMB-Val-Ser-Leu-VE]
- infection level by relative genome equivalents ([1]; 40 μM in sucrose solution, from 3 days post infection, 4 days of drug feeding, midguts, quantitative PCR): all tested proteasome inhibitors except HMB-Val-Ser-Leu-VE

SMILES: CC(C)C[C@H](NC(=O)CNC(=O)c1cc(Cl)ccc1Cl)B1OC(=O)C(CC(=O)O)(CC(=O)O)O1 [Ixazomib citrate]
- honey bee survival [2]: no differences in the survival between treatments

SMILES: CO[C@@H]1[C@H](OC(=O)/C=C/C=C/C=C/C=C/C(=O)O)CC[C@]2(CO2)[C@H]1[C@@]1(C)O[C@@H]1CC=C(C)C [Fumagillin]
- honey bee survival [2]: no differences in the survival between treatments
- E. hellem infection intensity, Fumagillin compared with ixazomib ([3]; 50 ng/ml Fumagillin): comparable
- N. ceranae infection intensity, Fumagillin compared with MG132 ([4]; two days of feeding Fumagillin, data not shown): similar
- infection intensity after cessation of treatment (rebound) [1]: increased

SMILES: CC(C)CC(NC(=O)[C@H](CC(C)C)NC(=O)OCc1ccccc1)C(=O)N[C@H](C=O)CC(C)C (stereo partly drawn) [MG132] (Cbz-Leu-[ξL]-Leu-aldehyde)
- N. ceranae infection intensity (spore levels by light microscopy) ([4]; experimentally infected bees, 500 μM MG132 in sucrose syrup for 2 days (48 hours) from day 6 post infection, measured day 8): dramatic reduction in infection intensity
- efficacy against N. ceranae infection relative to Fumagillin [1]: not as efficacious as Fumagillin

SMILES: CC(C)C[C@H](NC(=O)CNC(=O)c1cc(Cl)ccc1Cl)B(O)O [Ixazomib]
- N. ceranae infection by both spore-counting and DNA analysis [5]: striking reduction
- rabbit cell numbers [6]: without substantial reduction in rabbit cell numbers
- honey bee survival [2]: no differences in the survival between treatments
- E. hellem infection intensity ([3]; 10-100 nM ixazomib, preliminary results): reduces E. hellem infection intensity
- N. ceranae infection intensity by spore counting and DNA analysis ([1]; 2.5 μM): diminished, but still robust, reduction in infection intensity
- impact on N. ceranae infection levels (ranking among tested inhibitors) ([1]; 40 μM, 4 days of drug feeding, spore counting and quantitative PCR): most effective at reducing infection levels
- efficacy against N. ceranae infection relative to Fumagillin [1]: better efficacy than Fumagillin
- infection intensity after cessation of treatment (rebound) [1]: decreased
- N. ceranae infection level, dose and time dependence ([1]; treated up to eight days, measured days 4 and 8, spore counting and DNA analysis (FIGS. 4A-4F)): stably reduces N. ceranae infection level in a dose and time dependent manner
